Reference: patent publication US20200046746A1, “ANTI-AGING COMPOSITIONS AND METHODS FOR USING SAME” (Prescient Pharma LLC, priority 2015, published 2020)
Several values for one entry are separate records, joined by “and”; a condition that tells them apart may be missing. Equal values may be shown once.

What was measured:
[1] = test system: wild-type N2 Bristol strain of C. elegans; test: C. elegans longevity study (Example 4); assay type: in vivo; settings: for longevity and survival (longevity effect): wild type C. elegans, lithium carbonate 0.15 or 15 μM
Method: In this fourth Example, the effect of treatment with lithium and Glycyrrhizic acid separately, and as a fixed combination, was further evaluated on the wild-type N2 Bristol strain of C. elegans. Worm stocks were maintained on nematode growth medium (NGM) dishes containing 10 μg/mL cholesterol (Cat. No. C8667; Sigma-Aldrich, Saint Louis, Mo., USA). Dishes were seeded with OP50 Escherichia coli as a food source. Twelve polystyrene petri dishes (35 mm diameter) were prepared by filling with NGM agar containing […] cholesterol, and 25 μM 5-Fluoro-2′-deoxyuridine to suppress reproduction (FUDR; Cat. No. F0503; Sigma-Aldrich, Saint Louis, Mo., USA). The dishes were seeded with OP50 Escherichia coli as a food source. Duplicate dishes were used for each group. The treatment drug was dissolved in deionized water, and added to the dishes for the groups as explained below: […] Group #5: Glycyrrhizic acid in concentration of 0.25 mM. Group #6: untreated (control). NGM-agar treatment plates containing cholesterol (10 μg/mL) and 25 μM 5-Fluoro-2′-deoxyuridine (FUDR; Cat. No. F0503; Sigma-Aldrich, Saint Louis, Mo., USA) to suppress reproduction. […] The survival data for the various groups are also depicted in FIG. 17.

[2] = test system: normal human colon fibroblast cell line CCD 841 CoN (CRL-1790, ATCC); test: Senescence beta-galactosidase staining of aged normal human fibroblasts (Example 1); assay type: cell-based; settings: lithium carbonate 0.15 μM and/or glycyrrhizic acid 0.25 mM; for effect on beta-galactosidase staining of the fibroblasts in comparison with non-treated controls or monotherapy / % green stained (average green area with and without background subtraction) / % green staining (green stained area of total original area) / visible positive beta-Galactosidase staining: 48 hours; for % green staining: per flask, 48 hours treatment, higher values = more aged cells; for % green stained (average green area with and without background subtraction) / % green staining (green stained area of total original area): per image, substance assigned through Table 3 (Area = Image #); for visible positive beta-Galactosidase staining: visual, light microscope 100× magnification
Method: Aging-associated beta-galactosidase is widely used as a biomarker of senescence. Here we investigated senescence-associated-beta-galactosidase activity of human colon fibroblast cells by visual assessment.
In this Example, the effect of treatment with lithium and glycyrrhizic acid separately, and as a fixed combination, was evaluated on normal human colon fibroblast cell line CCD 841 CoN (CRL-1790, ATCC).
Group 4 (flasks 10-12, control), the medium was changed to fresh compete EMEM medium without drugs as controls.
FIGS. 1-4 show pictures of the staining results for each of the groups, respectively.
Digital pictures showing the staining results for each of the 12 flasks were then independently examined and scored for percentage of area of green (positive) staining based on pixels, with and without background subtraction.
Higher values reflect more intensive green staining which corresponds to more aged cells.

[3] = lithium carbonate 0.15 μM, in the combination plus glycyrrhizic acid 0.25 mM
[4] = lithium carbonate 15 μM, in the combination plus glycyrrhizic acid 0.25 mM

Structure (SMILES): CC1(C)[C@@H](O[C@@H]2O[C@@H](C(=O)O)[C@H](O)[C@@H](O)[C@@H]2O[C@H]2O[C@@H](C(=O)O)[C@H](O)[C@@H](O)[C@@H]2O)CC[C@]2(C)[C@@H]1CC[C@@]1(C)[C@H]2C(=O)C=C2[C@H]3C[C@@](C)(C(=O)O)CC[C@@]3(C)CC[C@@]21C [G acid, (3β,20β)-20-carboxy-11-oxo-30-norolean-12-en-3-yl 2-O-β-D-glucopyranuronosyl-α-D-glucopyranosiduronic acid]
- Age in days at % mortality 25% ([1]; glycyrrhizic acid 0.25 mM): 14 days
- Age in days at % mortality 50% ([1]; glycyrrhizic acid 0.25 mM): 16 days
- Age in days at % mortality 75% ([1]; glycyrrhizic acid 0.25 mM): 18 days
- Age in days at % mortality 90% ([1]; glycyrrhizic acid 0.25 mM): 19 days
- Age in days at % mortality 100% ([1]; glycyrrhizic acid 0.25 mM): 20 days
- Restricted mean Days ([1]; glycyrrhizic acid 0.25 mM): 16.06 days
- longevity and survival (longevity effect) ([1]; glycyrrhizic acid 0.25 mM): not observed
- effect on beta-galactosidase staining of the fibroblasts in comparison with non-treated controls or monotherapy [2]: did not appear to have significant effect
- % green staining [2]: 9.1% and 10.03% and 6.91%
- % green stained (average green area with and without background subtraction) [2]: 6.908% and 9.104% and 10.03%
- % green staining (green stained area of total original area) [2]: 6.91% and 9.1% and 10.03%
- visible positive beta-Galactosidase staining [2]: stained positively

Structure (SMILES): O=C([O-])[O-].[Li+].[Li+] [Li, lithium carbonate]
- Age in days at % mortality 100% ([1]; lithium carbonate 0.15 μM): 19 days
- Age in days at % mortality 25% [1, 3]: 13 days
- Age in days at % mortality 50% [1, 3]: 15 days
- Age in days at % mortality 75% [1, 3]: 16 days
- Age in days at % mortality 90% [1, 3]: 18 days
- Restricted mean Days [1, 3]: 14.88 days
- Age in days at % mortality 100% ([1]; lithium carbonate 15 μM): 19 days
- Age in days at % mortality 25% [1, 4]: 14 days
- Age in days at % mortality 50% [1, 4]: 15 days
- Age in days at % mortality 75% [1, 4]: 16 days
- Age in days at % mortality 90% [1, 4]: 18 days
- Restricted mean Days [1, 4]: 14.56 days
- longevity and survival (longevity effect) ([1]; glycyrrhizic acid 0.25 mM): not observed
- effect on beta-galactosidase staining of the fibroblasts in comparison with non-treated controls or monotherapy [2]: did not appear to have significant effect
- % green staining [2]: 6.25% and 2.83% and 5.24%
- % green stained (average green area with and without background subtraction) [2]: 2.828% and 6.253% and 5.243%
- % green staining (green stained area of total original area) [2]: 2.83% and 6.25% and 5.24%
- visible positive beta-Galactosidase staining [2]: stained positively
